{
  "source": "patent US20230390297A1",
  "about": "“USE OF NUCLEOTIDE SYNTHESIS INHIBITORS FOR TARGETED THERAPY IN MLL3/4 COMPASS MUTANT CANCER” (priority 2022, published 2023)",
  "key": {"WT and Mll3/4 KO mESCs": {"tested_on": "WT and Mll3/4 KO mESCs", "test": "RNA-seq of WT and Mll3/4 KO mESCs treated with LTX -/+ HPX", "type": "cell-based, mouse", "details": "48 hours", "protocol": "FIG. 3. […] (A) WT and Mll3/4 KO cells were treated with 0-2.5 μM lometrexol (LTX)−/+50 hypoxanthine (HPX) for 48 hours. CellTiter-Glo® luminescent cell viability assay was performed to determine the percentage of inhibition under these conditions. (B) WT and KO cells were treated with 0.3 μM LTX−/+50 μM HPX for 48 hours, and cells were harvested for RNA-seq. Differential gene expression analyses were performed with indicated comparisons. (C) Principal component analysis of RNA-seq in (B). (D) Hierarchical clustering heatmap showing differentially expressed genes in KO cells in comparison with WT cells.\nFIG. 10. Mll3/4 KO mESCs are more sensitive to purine synthesis inhibition. (A-B) WT and Mll3/4 KO cells were treated with 0-2.5 μM lometrexol (LTX) (A) or 0-5 methotrexate (MTX) (B) for 48 hours. CellTiter-Glo® luminescent cell viability assay was performed to determine the percentage of inhibition under these conditions with three different Mll3/4 KO clones included. (C) WT and Mll3/4 KO cells were treated with 0-40 μM SHIINI for 48 hours. MTT cell viability assay was performed to determine the percentage of inhibition under these conditions with three different Mll3/4 KO clones included.\nGene count tables were constructed using HTseq (56) with Ensembl gene annotations and used as input for edgeR 3.0.8 (57). Genes with Benjamini-Hochburg adjusted p-values less than were differentially expressed. Batch effects were removed using ComB at-seq on the raw read counts (58). Pathway analysis was performed with Metascape (59)."}, "[1]": {"tested_on": "HCT116 sc xenografts (MLL4 mutant)", "test": "HCT116 subcutaneous xenograft in nude mice", "type": "in vivo", "protocol": "FIG. 6. Inhibition of de novo purine synthesis by lometrexol inhibits MLL4 mutant tumor growth. Tumor development after inoculation of 4×10^6 of HCT116 cells into the nude mice. Mice with HCT116 subcutaneous (sc) tumor were either treated with vehicle (DMSO, n=9) or LTX (25 mg/kg, n=9) daily for 7 days. (A) Growth plots for sc tumors in each treatment group were shown. Tumor volumes (mm3) show mean and upper SD. (B) Dot plot representation of sc tumor volume in mice at day 12 post-tumor cell injection. Unpaired t-test values for comparisons between DMSO and LTX treatment: ****, P<0.0001. (C) Photographs of nude mice (left) and sc tumor taken from these mice (right) in which HCT116 cells were inoculated into the right flank. (D) Animal survival at the indicated days after inoculation. Log-rank test was used for comparisons between DMSO and LTX treatment: ****, P<0.0001. (E) H&E staining and immunohistochemistry showing the proliferation and apoptosis in tumors with Ki-67 and TUNEL staining. The signals for Ki-67 and TUNEL are quantified and shown in the bar plots on the right.\nFIG. 20. Lometrexol application in MLL4 mutant tumors in the xenograft mouse models. (A-D) Tumor development after inoculation of 4×10^6 of HT55 cells into the nude mice. Mice with HT55 subcutaneous (sc) tumor were either treated with vehicle (DMSO, n=9) or LTX (15 mg/kg, n=9) daily for 7 days. (A) Growth plots for sc tumors in each treatment group were shown. Tumor volumes (mm3) show mean and upper SD. (B) Dot plot representation of sc tumor volume in mice at day 18 post-tumor cell injection. […] (C) Photographs of nude mice (upper) and sc tumor taken from these mice (lower) in which HT55 cells were inoculated into the right flank. (D) Animal survival at the indicated days after inoculation. Log-rank test was used for comparisons between DMSO and LTX treatment. (E-H) Tumor development after inoculation of 4×10^6 of HCT116 cells into the nude mice. Mice with HCT116 subcutaneous (sc) tumor were either treated with vehicle (DMSO, n=9) or LTX (15 mg/kg, n=9) daily for 7 days. (E) Growth plots for sc tumors in each treatment group were shown. Tumor volumes (mm3) show mean and upper SD. (F) Dot plot representation of sc tumor volume in mice at day 12 post-tumor cell injection. Unpaired t-test values for comparisons between DMSO and LTX treatment: ***, P<0.001. (G) Photographs of nude mice (upper) and sc tumor taken from these mice (lower) in which HCT116 cells were inoculated into the right flank. (H) Animal survival at the indicated days after inoculation. Log-rank test was used for comparisons between DMSO and LTX treatment: ***, P<0.001.\nSix-week-old female athymic mice (nu/nu genotype, BALB/c background) were purchased from Envigo (Indianapolis, IN, USA) and housed under aseptic conditions. HT55 or HCT116 cells were implanted into the flank of athymic mice as previously described (65). Briefly, 4×10^6 cells, in 0.4 ml of cell culture media with matrigel (BD Bioscience) at 1:1 ratio, were injected in the right flank of mice under anesthetization by isoflurane. […] The tumor sizes were measured on alternate days and the mice were euthanized when the tumor size reached 1000 mm^3. […]\n(§1) For in vivo study, the Kaplan-Meier estimator and Prism software were used to generate and analyze survival plots. Differences between survival plots were calculated using a log-rank test. […]"}, "HT55 (MLL4 WT) xenograft": {"tested_on": "HT55 (MLL4 WT) xenograft", "test": "HT55 subcutaneous xenograft in nude mice", "type": "in vivo", "protocol": "FIG. 20. Lometrexol application in MLL4 mutant tumors in the xenograft mouse models. (A-D) Tumor development after inoculation of 4×10^6 of HT55 cells into the nude mice. Mice with HT55 subcutaneous (sc) tumor were either treated with vehicle (DMSO, n=9) or LTX (15 mg/kg, n=9) daily for 7 days. (A) Growth plots for sc tumors in each treatment group were shown. Tumor volumes (mm3) show mean and upper SD. (B) Dot plot representation of sc tumor volume in mice at day 18 post-tumor cell injection. […] (C) Photographs of nude mice (upper) and sc tumor taken from these mice (lower) in which HT55 cells were inoculated into the right flank. (D) Animal survival at the indicated days after inoculation. Log-rank test was used for comparisons between DMSO and LTX treatment. (E-H) Tumor development after inoculation of 4×10^6 of HCT116 cells into the nude mice. […]\nSix-week-old female athymic mice (nu/nu genotype, BALB/c background) were purchased from Envigo (Indianapolis, IN, USA) and housed under aseptic conditions. […] The tumor sizes were measured on alternate days and the mice were euthanized when the tumor size reached 1000 mm^3. […]\nas §1"}, "[2]": {"details": "LTX 25 mg/kg daily for 7 days vs DMSO"}},
  "data": [
    {"smiles": "Nc1nc2c(c(=O)[nH]1)C[C@@H](CCc1ccc(C(=O)N[C@@H](CCC(=O)O)C(=O)O)cc1)CN2", "note": "[lometrexol, (2S)-2-[[4-[2-[(6R)-2-amino-4-oxo-5,6,7,8-tetrahydro-3H-pyrido[2,3-d]pyrimidin-6-yl]ethyl]benzoyl]amino]pentanedioic acid]", "values": [
      {"measurement": "gene expression change in WT and Mll3/4 KO cells", "setting": "WT and Mll3/4 KO mESCs; 0.3 μM LTX or 50 μM HPX alone, LTX effect almost completely rescued by HPX", "result": "induced significant gene expression change"},
      {"measurement": "genes commonly downregulated in WT and KO cells", "setting": "WT and Mll3/4 KO mESCs; 0.3 μM LTX", "result": 1063, "unit": "genes"},
      {"measurement": "genes commonly upregulated in WT and KO cells", "setting": "WT and Mll3/4 KO mESCs; 0.3 μM LTX", "result": 1195, "unit": "genes"},
      {"measurement": "tumor growth at lower dose", "setting": "[1]; LTX 15 mg/kg daily for 7 days vs DMSO, tumor volume day 12 P<0.001, survival P<0.001", "result": "maintained the sensitivity to LTX at a lower dose"},
      {"measurement": "apoptosis in tumors (TUNEL)", "setting": "[1]; [2]", "result": "enhanced apoptosis"},
      {"measurement": "cell proliferation in tumors (Ki-67)", "setting": "[1]; [2]", "result": "significantly decreased"},
      {"measurement": "subcutaneous tumor growth (tumor volume)", "setting": "[1]; LTX 25 mg/kg intraperitoneally daily for 7 days vs DMSO, P<0.0001", "result": "significantly inhibited the subcutaneous (sc) tumor growth"},
      {"measurement": "survival of recipient mice", "setting": "[1]; LTX 25 mg/kg intraperitoneally daily for 7 days vs DMSO, log-rank P<0.0001", "result": "extend the survival of recipient mice"},
      {"measurement": "sc tumor volume at day 18 post-tumor cell injection, DMSO vs LTX (unpaired t-test)", "setting": "HT55 (MLL4 WT) xenograft; LTX 15 mg/kg daily for 7 days", "result": "not statistically significant"},
      {"measurement": "tumor growth", "setting": "HT55 (MLL4 WT) xenograft; LTX 15 mg/kg daily for 7 days vs DMSO", "result": "almost completely resistant to LTX"}
    ]}
  ]
}
